Laboratory results published in patent US9150530B2, “Esters of 4, 9-dihydroxy-naphtho [2, 3-b] furans for disease therapies” (Zhoushan Haizhongzhou Xinsheng Pharmaceuticals Co., Ltd., priority 2011, dated 2015).

Experiments:
[1] = tested on: SW480; assay: Cell viability determination (MTT), SW480; assay type: cell-based; settings: Homo sapiens, SW480, colorectal cancer, 48 hour incubation, read-out: Drug concentrations for 50% cell viability (IC50)
Source text: (§1) Cell Culture: A549, DLD1, SW480, LOVO, HT-29, Hela, U-20S, MES-SA, SK-MEL-28, Panc-1, DU-145, CNE, U251, Eca-109, MGC80-3, QGY-7701, BEL-7404, PLC/PRF/5, Huh-7, and SGC-7901 cells were maintained in Dulbecco's Modified Eagle Medium (DMEM) (imported from Invitrogen, Carlsbad, Calif., USA) supplemented with 10% fetal bovine serum (FBS) (Si Ji Qing, Hangzhou, China) and 1% penicillin/streptomycin/amphotericin B (imported from Invitrogen, Carlsbad, Calif., USA).
(§2) Cell Viability Determination: Popular MTT method (Archives of Biochemistry and Biophysics, 1993, 303: 474-482) was used to screen the in vitro effects of the invented drugs. Briefly, 5000 to 10000 cells were inoculated per well in a 96-well plate. After overnight incubation, drug was added to the wells at final concentration of 10 μM, […], 2.5 μM, 1.25 μM, or 1 μM, 0.75 μM, 0.5 μM and 0.25 μM in complete culture medium. Each dose level covered 4 equivalent wells. After 48 hour incubation, one tenth volume of 5 mg/mL MTT (thiazolyl blue tetrazolium bromide, Sigma-Aldrich) stock solution was added, and incubation was continued for 2 hours. Then medium was removed and 100 μL of isopropanol solution comprising 86% isopropanol, 4% aqueous 1 N HCl and 10% aqueous SDS solution (10% in concentration) was added. The absorbance of each well at 570 nm wavelength was measured by a micro-plate reader after gentle shaking for 20 minutes. Drug concentrations of 50% cell viability (IC50) were calculated by LOGIT method.

[2] = tested on: U-20S; assay: Cell viability determination (MTT), U-20S; assay type: cell-based; settings: osteosarcoma, 48 hour incubation, read-out: Drug concentrations for 50% cell viability (IC50)
Source text: as §1, §2

[3] = tested on: CNE; assay: Cell viability determination (MTT), CNE; assay type: cell-based; settings: Homo sapiens, nasopharyngeal cancer, 48 hour incubation, read-out: Drug concentrations for 50% cell viability (IC50)
Source text: as §1, §2

[4] = tested on: U251; assay: Cell viability determination (MTT), U251; assay type: cell-based; settings: Homo sapiens, U-251, U251, glioma, 48 hour incubation, read-out: Drug concentrations for 50% cell viability (IC50)
Source text: as §1, §2

[5] = Metabolism in biological fluid (human whole blood, cancer cell lysate, liver microsomes, mouse oral uptake), HPLC; assay type: in vitro ADME; settings: liver microsomes or mouse oral uptake system, 20 μM, 37° C.
Protocol: Second, a major metabolite found after incubation of compound I, III, IV, VI or XIII in biological fluid, such as human whole blood, or cancer cell lysate, or liver microsomes, or mouse oral uptake system, is compound XII (FIG. 3). Similarly, a major metabolite found after incubation of compound V, VII or XIV in biological fluid is 2-(1-hydroxy-n-propyl)-naphtho[2,3-b]furan-4,9-dione (data not shown). Reduction of the position 2 substituent carbonyl group is part of quinone redox reaction as evidenced by the β-lapachone effect on the formation of compound XII in the compound XIII incubation mixture of human whole blood (part D of FIG. 3). The possible reaction mechanism is proposed as shown in scheme 7, in which the two electron reduction could be NQ01 catalyzed reduction or two successive cytochrome b5 reductase or p450 reductase catalyzed reaction. As substrate of these enzymes, β-lapachone could compete for the two electron or single electron reaction and thus reduced formation of the metabolism product.
Crystalline or amorphous solid of compound was mixed with excipient and suspended in 0.5% carboxymethylcellulose (CMC) solution in a mortar. Then the mixture was orally administered into ICR mouse at the predetermined dosage. At the predetermined time point, blood was drawn from the mouse and stored in the vial containing heparin. The blood samples were centrifuged at 6,000 rpm for 10 min, and plasmas were separated. To each plasma sample, 9 times volume of acetonitrile/methyl trifluoromethanesulfonate (1000:1) or acetonitrile/concentrated HCl (1000:1) was added. The resulting mixtures were vortexed and incubated in dry ice for 30 minutes or in −20° C. freezer for 3 hours, then centrifuged, and supernatants were separated for HPLC analysis using gradient B.
The biological systems for in vitro metabolism study include: human whole blood stabilized with sodium citrate; cancer cell lysate (obtained using freeze-thaw method, 10 mg/ml in protein concentration for use); liver microsomes with NADPH generation system (prepared according to the protocol provided by iPhase Pharma, Beijing, China);
10 mM of a compound of formula I or its analog or compound XIII in DMSO (however, compound VI was in DMF) was added into the biological system to a final concentration of 20 μM. The mixtures were incubated at 37° C. for predetermined time. To each sample, then 9 times volume of acetonitrile was added. The resulting mixtures were vortexed and incubated in dry ice for 30 minutes or in −20° C. freezer for 3 hours, then centrifuged, and supernatants were separated for HPLC analysis using gradient B.

Question: Which IC50 [1] does the source give for `CC(=O)Oc1c2ccccc2c(OC(=O)CNC(=O)OC(C)(C)C)c2oc(C(C)=O)cc12` [compound IV, 2-acetyl-4-acetoxy-9-[(tert-butoxycarbonyl)amino]acetoxy-naphtho[2,3-b]furan] here?
Answer: The IC50 was 910 nM.

Question: And the IC50 [2]?
Answer: Its IC50 is 750 to 1000 nM.

Question: What about the IC50 [3] of the same compound?
Answer: Its IC50 is 1330 nM.

Question: What about the IC50 [4] of the same compound?
Answer: Its IC50 is 1140 nM.

Question: What about the “Major metabolite found after incubation in biological fluid” value [5] of the same compound?
Answer: The value was “compound XII”.
